Experimental data taken from patent publication US6693120B1, “Spray drying of thrombin inhibitors” (Abbott GmbH & Co. KG, priority 1999, dated 2004).

Legend:
Format in all cases: physicochemical
[1] = Hygroscopicity: weight gain on storage in desiccators at constant humidity; set-up: unit not given here; conditions: vacuum-dried
Procedure: To determine the hygroscopicity, samples of the dry active substance are stored in desiccators in which a constant humidity has been set by saturated salt solutions, at constant temperature. The weight change is determined by weighing at intervals of a few days. The weight gain is determined by the following formula: [formula]

[2] = Storage stability at 70° C., 1 bar in an open vessel (HPLC)
[3] = HPLC content of the active substance after drying

N-((Hydroxycarbonyl)methylene)-(R)-cyclohexylalanyl-(S)-3,4-dehydroproline 6-Amidino-3-picolinylamide Hydrochloride [Betaine × HCl]
weight gain ([1]; 45% R.H., 0 days): 0 | weight gain ([1]; 45% R.H., 3 days): 0.28 | weight gain ([1]; 45% R.H., 6 days): 0.31 | weight gain ([1]; 45% R.H., 9 days): 0.26 | weight gain ([1]; 45% R.H., 14 days): 0.23 | weight gain ([1]; 45% R.H., 21 days): 0.26 | weight gain ([1]; 65% R.H., 0 days): 0 | weight gain ([1]; 65% R.H., 3 days): 3.50 | weight gain ([1]; 65% R.H., 6 days): 3.86 | weight gain ([1]; 65% R.H., 9 days): 3.59 | weight gain ([1]; 65% R.H., 14 days): 3.54 | weight gain ([1]; 65% R.H., 21 days): 3.45 | weight gain ([1]; 75% R.H., 0 days): 0 | weight gain ([1]; 75% R.H., 3 days): 7.60 | weight gain ([1]; 75% R.H., 6 days): 9.31 | weight gain ([1]; 75% R.H., 9 days): 7.98 | weight gain ([1]; 75% R.H., 14 days): 7.84 | weight gain ([1]; 75% R.H., 21 days): 7.86 | weight gain ([1]; 86% R.H., 0 days): 0 | weight gain ([1]; 86% R.H., 3 days): 15.51 | weight gain ([1]; 86% R.H., 6 days): 20.23 | weight gain ([1]; 86% R.H., 9 days): 16.66 | weight gain ([1]; 86% R.H., 14 days): 16.61 | weight gain ([1]; 86% R.H., 21 days): 16.14 | weight gain ([1]; 93% R.H., 0 days): 0 | weight gain ([1]; 93% R.H., 3 days): 19.73 | weight gain ([1]; 93% R.H., 6 days): 20.34 | weight gain ([1]; 93% R.H., 9 days): 18.97 | weight gain ([1]; 93% R.H., 14 days): 19.11 | weight gain ([1]; 93% R.H., 21 days): 18.78 | active substance content based on initial active substance content ([2]; 0 days): 100 HPLC % areas | active substance content based on initial active substance content ([2]; 7 days): 98.5 HPLC % areas | active substance content based on initial active substance content ([2]; 14 days): 97.5 HPLC % areas | HPLC content of the active substance in % areas ([3]; spray dried): 98.5% | byproducts ([3]; spray dried): no additional | HPLC content of the active substance in % areas ([3]; vacuum dried (60° C./12 h)): 97.8% | byproducts ([3]; vacuum dried (60° C./12 h)): additional byproducts

N-((Hydroxycarbonyl)methylen)-(R)-cyclohexylalanyl-(S)-3,4-dehydroproline 6-Amidino-3-picolinylamide Dihydrochloride [Betaine × 2HCl]
active substance content based on initial active substance content ([2]; 0 days): 100 HPLC % areas | active substance content based on initial active substance content ([2]; 7 days): 99.7 HPLC % areas | active substance content based on initial active substance content ([2]; 14 days): 99.7 HPLC % areas

N-((Hydroxycarbonyl)methylene)-(R)-cyclohexylalanyl-(S)-3,4-dehydroproline 6-Amidino-3-Picoli-nylamide [Betaine (n = 0)]
active substance content based on initial active substance content ([2]; 0 days): 100 HPLC % areas | active substance content based on initial active substance content ([2]; 7 days): 92.5 HPLC % areas | active substance content based on initial active substance content ([2]; 14 days): 88.6 HPLC % areas
